In patent publication US12410178B2, “Small cationic ortho-5,15-di-heteroaryl-porphyrin derivatives and their applications in photoinactivation of microorganisms” (UNIVERSIDADE DE COIMBRA, priority 2019, dated 2025):

Legend:
[1] = system: Staphylococcus aureus ATCC 25925 biofilms; experiment: PDI phototoxicity towards biofilms (CFU); type: cell-based
Description: Phototoxicity towards biofilms was evaluated after biofilm growth overnight. Assays were performed with biofilms from Staphylococcus aureus ATCC 25925. Initially, bacteria cultures were diluted 1:9 in Brain Heart Infusion (BHI) (Kasvi®, Brazil). The microorganisms were centrifuged (1500 rpm, 10 min) and washed twice with phosphate-buffered saline (PBS). Aliquots of the diluted bacterial suspensions were inoculated into 24-well flat-bottom sterile polystyrene microplates and incubated for 24 h at 37° C. For PDI experiments, the plates with biofilms were incubated with 5.2 nM of the photosensitizer for 30 min in the dark at room temperature. Wells used as controls were incubated with PBS only. After that, the plates were illuminated with a specially designed light source named Biotable®. The Biotable® was composed by 24 LED lamps that deliver a uniform light fluence rate of 30 mW/cm^2 in the wavelength range between 400-650 rm. […] After this time, the colonies were counted and the colony-forming units (CFU) determined.
For the phototoxicity study, Staphylococcus aureus ATCC 25925 biofilms grown on 24-well flat-bottom sterile polystyrene microplates were incubated with 5.2 nM of the cationic ortho-5,15-di-heteroaryl porphyrin with Formula (IIa) for 30 min in the dark at room temperature. […] After this time, the colonies were counted and CFU determined. […]

[2] = system: HDFn neonatal human dermal fibroblast; experiment: Toxicity and phototoxicity towards human cell lines (MTT); type: cell-based
Description: (§1) Toxicity towards human cell lines was evaluated in vitro using the 3-(4,5-dimethylthiazol-2-yl)2,5-diphenyl tetrazolium bromide (MTT, from Sigma Aldrich) assay to estimate the viability of cells after appropriate treatment. After cell attachment, photosensitizer solutions in PBS at concentrations between 0 to 10 μM were added to the cell cultures and incubated for 1 h at 37° C. in the dark. After illumination with the Biotable® or after the equivalent time in control experiments, MTT dissolved at 5 mg/ml in PBS was added to each well (final concentration 0.5 mg/ml), and the microplates were further incubated for 3-4 hours. Medium were then discarded and 100 μl of methanol were added to the cultures and mixed thoroughly to dissolve the dark blue crystals of formazan. Formazan quantification was performed using an automatic microplate reader (Multiskan Go Thermo) by absorbance measurements at 570 nm. Each experiment was repeated three times. Data were expressed as mean absorbance value of six samples and standard error of the mean.
(§2) This example describes the evaluation of in vitro toxicity against HDFn neonatal human dermal fibroblast and HaCaT immortalized human keratinocyte cell lines of a cationic ortho-5,15-di-heteroaryl porphyrin with Formula (IIa). Both types of cells were grown in DMEM (BioTech) with addition of 10% fetal bovine serum (Cultilab—Campinas, SP, Brazil). Before the experiments, the cells were removed by trypsinization, washed with PBS and maintained in a humidified atmosphere at 37° C. and 5% CO2. The cells were incubated in the dark with the photosensitizer of Formula (IIa) in PBS for 30 min at concentrations up to 10 μM, and then illuminated with the Biotable® to deliver 5 J/cm^2 in the wavelength range between 400-700 nm. After exposure to light, the cells were washed with fresh medium and plates were returned to the incubator for 24 h. Cell viability was determined by a MTT assay performed 24 h after irradiation. The cells in the control experiment remained in the dark for the time of the illumination. […] Exposure to a light dose of 5 J/cm^2 led only to a 20% decrease in the viability of fibroblasts at the highest drug dose tested: 10 μM.

[3] = system: HaCaT immortalized human keratinocyte; experiment: as above; type: cell-based
Description: as §1, §2

[4] = Fluorescence quantum yield; type: physicochemical; settings: standard TPP in toluene
Description: Fluorescence Emission: The fluorescence emission spectra were recorded in a Horiba Scientific Spectrofluorometer Fluoromax-4. The spectra were collected from 550 nm up to 800 nm using standard cuvettes of 1 cm of optical path. Fluorescence quantum yields (ΦF) were obtained comparing the area of integrated fluorescence of the samples with that of a reference fluorimetric compound with known ΦF, corrected by the absorption of sample and reference at the excitation wavelength and by the refractive indices of the solvents used for the standard and reference solution. Tetraphenylporphyrin (TPP) in toluene (ΦF=0.11) was used as standard. The absorbance of the solutions at the excitation wavelength was 0.01.

[5] = Singlet oxygen quantum yield; type: physicochemical; settings: excitation 355 nm, reference phenalenone
Source text: Singlet Oxygen Quantum Yield: The experiments were run at room temperature. The solutions were excited at 355 nm using a Nd-YAG laser (Spectra-Physics Quanta-Ray GRC-130) and the phosphorescence of singlet oxygen collected at 1270 nm in a Hamamatsu R5509-42 photomultiplier, cooled to 193 K in a liquid nitrogen chamber, after selection of the wavelength with a monochromator with 600 lines grading. A Newport filter model 10LWF-1000-B was used in the emission to avoid scattering and fluorescence. Phenalenone was used as a reference of singlet oxygen generator, ΦΔ^Ref=0.98. Extrapolating to time-zero the decays of the singlet molecular oxygen emissions measured for sample and the reference solutions at a given laser intensity, we obtained a relation between emission intensities as a function of laser intensity, that is identical to the relation between the singlet molecular oxygen quantum yields. The singlet oxygen quantum yields were obtained by comparing the linear dependence between and the energy of the laser pulse for both the sample and the reference for the same absorption of sample and reference at the excitation wavelength, taking into account the singlet oxygen quantum yield of phenalenone.

Cn1cc[n+](C)c1C1=C2C=CC3=[N+]2[Zn@]24[n]5c(ccc51)C=C1C=CC(=[N+]12)C(c1n(C)cc[n+]1C)=c1ccc([n]14)=C3 [Formula (IIa), 5,15-bis(1,3-dimethylimidazol-2-yl)porphyrinate zinc (II) diiodide]
log CFU at 5.2 nM, S. Aureus biofilm ([1]; 5.2 nM, biofilm, 5 J/cm^2, 400-650 nm, 30 min incubation): 7
reduction of bacteria in the biofilm ([1]; ca. 5 nM, 5 J/cm^2 of white light): 7 orders of magnitude
Dark cytotoxicity, cell viability ([2]; 10 μM, in the dark): did not show a statistically significant reduction of cell viability
decrease in the viability ([2]; 10 μM, light dose 5 J/cm^2): 20%
Survival fraction at 10 μM, Fibroblast ([2]; light dose 5 J/cm^2): 100%
Dark cytotoxicity, cell viability ([3]; 10 μM, in the dark): did not show a statistically significant reduction of cell viability
Survival fraction at 10 μM, Keratinocytes ([3]; light dose 5 J/cm^2): 80%
ΦF fluorescence quantum yield [4]: 0.10
ΦΔ singlet oxygen generation quantum yield [5]: 0.75
